Test results reported in patent publication US11306361B2, “Pathology prognosis method” (CENTRE NATIONAL DE LA RECHERCHE SCIENTIFIQUE, priority 2015, dated 2022).
Numbered stars: 1 amine (or outer) side, 2 acyl side, 3 side chain; on linkers, the order of the positions; unused ones are H or OH. Bridge positions count the residues as written; N and C are the ends. Square brackets hold non-standard residues; d marks the D form. Peptide text beside a SMILES is read from it. I, II: the chains in the order shown. Actinocin(9to1) = Cc1c2oc3c(C)ccc(C(=O)[*:1])c3nc-2c(C(=O)[*:2])c(N)c1=O; NMeV = CN[C@H](C(=O)O)C(C)C; Sar = CNCC(=O)O

Tests used:
[1] = tested on: MEF cells transformed with RAS-G12V/DNP53 and MMTV-ErbB2 tumor cells; test: Measurement of cell death (apoptosis) in transformed tumor cells; type: cell-based, mouse; conditions: for apoptosis rates versus quantity of Cyclin D1: MEFs transformed with P53 negative dominant and RAS G12V, null, low or high Cyclin D1, FIG. 23
Procedure: (§1) Cell death is induced by exposure to actinomycin D A9415, Sigma, for 6 h, 5-Fluoro uracil (Fluorouracil Winthrop, Sanofi-Aventis) for 24 h, or ethanol (20821.330, VWR) for 6 h and inhibited by exposure to Q-VD-Oph (SML0063, Sigma).
(§2) The cells are washed twice in PBS 1×, unstuck with trypsin and reacted in a marking buffer (10 mM of Hepes pH=7.4, sodium chloride 150 mM, KCl 5 mM, MgCl2 1 mM, CaCl2 1.8 mM). Then the cells were marked with […]-fluorescein isothiocyanate (BD Biosciences) according to the manufacturer's instructions in 0.5 μg/mL of propidium iodide (PI; Sigma-Aldrich P-4170). After 15 min. of incubation in the dark, the cells are analyzed by flux cytometry. The living cells are Annexin V and PI double negatives and the apoptotic cells are positive for Annexin V and negative for PI.

[2] = tested on: RAS or ErbB2 cancer cells; test: Western blot of cleaved PARP in tumor cells; type: cell-based, mouse; conditions: after treatment with 5-FU; limited by Cyclin D1; FIG. 27
Text: (§3) The antibodies used are the following: anti-HA (HA.11 Clone 16B12, Eurogentec or Anti-HA EPITOPE TAG-600-401-384, Tebu-bio or Hemagglutinin (HA) Rabbit Polyclonal Antibody, Life Technologies), anti-Cyclin D1 (sc-450, Santa Cruz or MS-210-PABX (AB1), Fisher Scientific or RB-010-PABX (AB3), Fisher scientific), anti-RB total (sc-74562, Santa Cruz), anti-Phospho-RB (Ser780) (9307, Cell signaling), anti-Actin (ab6276, Abcam), anti-Tubulin (T9026, Sigma-Aldrich), anti-Ras (BD610002, BD Biosciences), anti-FLAG (F7425, Sigma-Aldrich), anti-cleaved PARP (ab32064, Abcam), anti-VASA (ab13840, Abcam), anti-Thyrosine Hydroxylase (MAB318, Merck Millipore). The secondary antibodies used are coupled with peroxidase (signaling), and the detection of the complexes is done using the enhanced chemiluminescence detection kit (Millipore).

dopaminergic neurons = test: 6-OHDA lesions, survival of mice; type: in vivo, mouse; conditions: FIG. 9
Procedure: The mice were anesthetized with a mixture of ketamine (Imalgene 500, 50 mg/mL, Merial), 0.9% saline solution (weight/vol) and xylazine (Rompun 2%, […], Bayer) (2:2:1, i.p., 0.1 mL/30 g) and mounted on a stereotaxic apparatus. The 6-OHDA-HCl (Sigma) was dissolved in 0.02% ascorbic acid in a saline solution at a concentration of 3 μg of 6-OHDA/μL. Each mouse received two unilateral injections of 6-OHDA (2 μL/injection) in the right dorsal striatum, according to the following coordinates (in mm): anteroposterior +1, mediolateral −2.1, dorsal ventral −3.1 and anteroposterior +0.3, mediolateral −2.3, and dorsal ventral −3.1. The animals are then released and received a daily injection of glucose solution (50 mg/mL, subcutaneous).

male germinal cells = test: Methoxyacetic acid treatment, mouse testicles; type: in vivo
Procedure: The mice were sacrificed 14 hours after treatment, for the postmortem analyses.
as §3

[3] = tested on: MEFs transformed with the mouse T antigen; test: Apoptosis and PARP cleavage in cell lines immortalized by the T antigen; type: cell-based; conditions: FIG. 15; for induced apoptosis as a function of Cyclin D1 level: T antigen immortalized cells, wild vs Ntag/Ntag vs −/−; for cleavage of the PARP: cells with low Cyclin D1 level
Text: as §3, §1, §2

substantia nigra = test: Methamphetamine model of dopaminergic neurons in mice
Procedure: The methamphetamine was dissolved in a saline solution at 0.9% (weight/volume) sodium chloride, and injected at a rate of 10 mL/Kg. Several doses of methamphetamine (3 doses of 5 mg/kg at 3 h intervals) were injected intraperitoneally, the first dose being injected at noon. The control mice were treated with the saline solution alone. The mice were sacrificed 24 hours after treatment, for the postmortem analyses.
The mouse organs were washed with PBS 1× at 37° C. and lysed in HTRF buffer (Tris 10 mM, EDTA 1 mM, 0.05% NP-40) using a cell homogenizer. After centrifugation at 16000 g for 5 min., the samples were normalized by adjusting the total quantity of DNA (nanodrop, Thermo Scientific) at 500 ng/mL.

[4] = mice expressing N-terminal tagged Cyclin D1 relative to wild mice, intraperitoneal injection

Q: How did the “apoptosis rates versus quantity of Cyclin D1” value [1] turn out when `O=c1[nH]cc(F)c(=O)[nH]1` [5-FU, 5-fluorouracil] was run?
A: Its value is “the quantity of Cyclin D1 correlates with the decrease in the apoptosis rates”.

Q: What about the “levels of cleaved PARP” value [2] of the same compound?
A: Its value is “increase”.

Q: For `NCCc1cc(O)c(O)cc1O` [6-OHDA, 6-hydroxy dopamine], which “survival of wild mice” value (dopaminergic neurons; CCND1+/+ mice, intrastriatal injection) is on record?
A: The value was “survive treatment”.

Q: What about the “survival of mice expressing N-terminal tagged Cyclin D1” value (dopaminergic neurons; mice expressing little Cyclin D1, intrastriatal injection) of the same compound?
A: The value was “die several days after”.

Q: With `COCC(=O)O` [MAA, methoxyacetic acid] as the compound, how does the “Cyclin D1 in testicles (HTRF)” value (male germinal cells; 14 hours after intraperitoneal injection at 150 mg/kg, FIG. 13) read?
A: The value was “decrease”.

Q: And the “cleaved PARP rate in testicles” value (male germinal cells; [4])?
A: Its value is “increase”.

Q: What about the “germinal cell marker (Vasa) in testicles” value (male germinal cells; [4]) of the same compound?
A: The value was “massive loss”.

Q: Which “apoptosis induced by 5-FU or ethanol” value ([1]; RAS and ErbB2 lines, Q-VD-Oph 20 μM, FIGS. 24 and 25) does the source give for `CC(C)[C@H](NC(=O)c1ccc2ccccc2n1)C(=O)N[C@@H](CC(=O)O)C(=O)COc1c(F)cccc1F` [Q-VD-Oph] here?
A: The value was “shunts the apoptosis”.

Q: With `Cc1c2oc3c(C)ccc(C(=O)N[C@@H]4C(=O)N[C@H](C(C)C)C(=O)N5CCC[C@H]5C(=O)N(C)CC(=O)N(C)[C@@H](C(C)C)C(=O)O[C@@H]4C)c3nc-2c(C(=O)N[C@@H]2C(=O)N[C@H](C(C)C)C(=O)N3CCC[C@H]3C(=O)N(C)CC(=O)N(C)[C@@H](C(C)C)C(=O)O[C@@H]2C)c(N)c1=O` [actinomycin D] (I: T[dV]P[Sar][NMeV] / II: T[dV]P[Sar][NMeV]; ester I:1-I:C, II:1-II:C; linker I:N-II:N via Actinocin(9to1)) as the compound, how does the “induced apoptosis as a function of Cyclin D1 level” value [3] read?
A: Its value is “increases with a low Cyclin D1 level”.

Q: And the “cleavage of the PARP” value [3]?
A: Its value is “strong cleavage of the PARP”.

Q: What about the “apoptosis rates versus quantity of Cyclin D1” value [1] of the same compound?
A: Its value is “the quantity of Cyclin D1 correlates with the decrease in the apoptosis rates”.

Q: Which results are given for `CCO` [ethanol]?
A: induced apoptosis as a function of Cyclin D1 level [3]: increases with a low Cyclin D1 level; cleavage of the PARP [3]: strong cleavage of the PARP

Q: What does the source list for `CN[C@@H](C)Cc1ccccc1` [methamphetamine]?
A: quantity of Cyclin D1 in the substantia nigra (HTRF) (substantia nigra; CCND1Ntag/Ntag mice, 24 hours after intraperitoneal injection, FIG. 8): decreases; cerebral lesions (substantia nigra; animals expressing little Cyclin D1, intraperitoneal 5 mg/kg): increase in cerebral lesions
